Entries after “also recorded” stand apart in the source; their conditions may differ. Marks after values point to notes of the source that are not given here.

The values below come from patent US8835410B2, “Treatment of eyelid dermatitis” (Bodor Laboratories, Inc., priority 2011, dated 2014).

Data set [1] can be described thus: Stability of LE in aqueous suspension with or without Δ^1-cortienic acid at room temperature (HPLC). Format: physicochemical. The conditions noted are these: for k: 421 days. The procedure: To investigate the effect of Δ^1-cortienic acid (Δ^1-CA) on the stability of loteprednol etabonate (LE), the following experiments were conducted at room temperature (22.5° C.):
Inactives: Δ^1-CA, 0.1% (2.897 mM) & 0.2% (5.795 mM); Glycerin, Povidone, Tyloxapol, Edetate Disodium Dihydrate, Purified Water.
Preservative added: Benzalkonium Chloride 0.01%
• 1) To the mixture of 9.32 g glycerin (USP, 99.7%), 7.2 g Povidone (USP, 90000), 1.2 g Tyloxapol (USP), 0.08 g benzalkonium chloride (USP, […] of 50% solution), and 0.04 g Edetate Disodium Dihydrate (USP), 400 ml Purified Water (USP) was added. 2) The mixture was sonicated for 20 minutes to make a homogenous solution, and its pH was measured. 3) To 150 ml of each solution was added 0.15 g or 0.3 g of loteprednol etabonate (micronized), and the mixture was sonicated for 30 minutes to obtain two LE-only suspensions at 0.1% & 0.2%, respectively. 4) From each LE-only suspension (0.1 & 0.2%), 75 ml was taken and combined with micronized Δ^1-CA (0.075 & 0.15 g). 5) All four suspensions were mixed and sonicated again for another 30 minutes, and the pH of each was measured (Blank vehicle pH 3.4; LE only suspensions, pH 3.5; LE+Δ^1-CA suspensions, pH 3.3). 6) Each of the four suspensions was separated/pipetted (1 ml) into 8 ml amber vials (1 ml/vial) and the vials were sealed with caps and parafilm. 7) Half of each formula 1 ml/vial samples were loaded on a shaker for continuous shaking (170 times/min), and the other half of the samples were only shaken vigorously by hand each time before HPLC sample preparation. 8) For periodical samplings, one sample of every set of suspensions was taken and analyzed by HPLC. 9) All procedures were conducted at 22.5° C. Sample Preparation
The change of LE and its degradation products AE (acid etabonate) and Δ^1-CA in the suspensions was measured periodically. A vial of each series of suspensions was randomly taken, mixed/washed with 50% acetonitrile, and transferred to a 10 ml cylinder to make a final volume of 10 ml solution (about 100 μg/ml for LE 0.1% or 200 μg/ml for LE 0.2% samples).
A HPLC system operating at ambient temperature was used to quantitative determination of LE, AE and Δ^1-CA. Phenonemax Luna C18 (5μ, 150×4.6 mm) was connected to a Spectra-Physics component system consisting of a SP 8810 precision isocratic pump, a Rheodyne 7125 injector (injection volume 20 μl), a SP 8450 UV/VIS variable wavelength detector (operated at 254 nm), and a SP 4290 integrator. At a flow rate of 1 ml/min, a mobile phase consisting of acetonitrile, acetic acid, and water in a volume ratio of 60:0.2:40 eluted LE, AE and Δ^1-CA at 7.5, 3.2, and 2.2 min, respectively. Each sample was run in triplicate. The change in peak-area was recorded, and the percent ratio of each compound (LE, AE, and Δ^1-CA) toward total (LE+AE+Δ^1-CA) in peak-area was used to evaluate the disappearance of LE as well as the appearance of AE and Δ^1-CA. Since Δ^1-CA was used as an additive for LE+Δ^1-CA samples, the appearance of Δ^1-CA (from AE) was in the error range of these samples, and furthermore, in the LE-only samples, Δ^1-CA was observed from zero-time at 0.36±0.19% of total (LE+AE+Δ^1-CA), and less than, or about 0.5% thereafter in all LE-only samples; the number 0.5% was used as the amount of Δ^1-CA for all of LE+Δ^1-CA samples.

The next data set concerns patient with necrobiosis. Briefly: Topical treatment of a patient with necrobiosis. In kind it is in vivo, human. The note with it: LE as 0.5% cream of Example 2. The source says: Further confirmation has been found in a patient with necrobiosis.
A further data set concerns Sprague-Dawley rats. Kind of data set: Effect of steroid ointments on skin atrophy and thymus weight in rats. Format: in vivo, rat. The conditions noted are these: for PERCENT DECREASE IN SKIN THICKNESS / PERCENT DECREASE IN THYMUS WEIGHT: ointment on shaved dorsal skin, vs controls; for effect on thymus weight (in words) / skin atrophy (in words): topical ointment. The procedure:
To investigate the effects of loteprednol etabonate (LE) on skin atrophy and thymus weight, the following experiments were conducted: Loteprednol etabonate (LE) and betamethasone valerate (BMV) were formulated by Otsuka Pharmaceuticals at a concentation of 0.1% in a white petrolatum base containing 5% propylene carbonate. All other test materials were steroidal anti-inflammatory compounds [Locoid® or hydrocortisone 17-butyrate (HCB) and Rinderon® or betamethasone 17-valerate (BMV-R) or white petrolatum vehicle as a control] which were commercially available in Japan at the time of testing. Sprague-Dawley rats were used in this study. All animals were from the animal research facilities of Otsuka Pharmaceutical Co. Ltd., Tokushima, Japan and all animal care and housing were according to their standard procedures. Groups of male rats (Sprague Dawley) weighing about 200-240 g were shaved on the dorsal surface. Loteprednol etabonate and betamethasone 17-valerate were administered as 0.1% ointments using white petrolatum base containing 5% propylene carbonate (PC). In separate groups, 0.12% betamethasone 17-valerate (Rinderon®), 0.1% hydrocortisone 17-butyrate (Locoid®) were administered as comparators. White petrolatum base (+5% PC) was administered to control animals. Two schedules of dosing were used: 200 mg/rat for 14 days (n=5) or 400 mg/rat for 7 days (n=7). At the end of these periods, rats were sacrificed. The thickness of a 1 cm^2 section of skin from the treated area was measured. The thymus was removed and weighed.

For data set [2] the following is noted: clinical trials, compared to prednisolone; cited from earlier work.
The subject of a further data set is hairless mice. Briefly: Multi-week topical (photocarcinogenicity) study of loteprednol etabonate cream in hairless mice, with or without simulated sunlight; skinfold thickness. Format: in vivo, mouse. As to the method: To investigate photocarcinogenicity, a multi-week study of loteprednol etabonate cream in hairless mice, with or without simulated sunlight, was undertaken. […] Because effects on skin atrophy were also recorded, however, and because a period of 4 weeks is the maximum recommended treatment period for eyelid dermatitis, results for the first 4 weeks of the study are given below. Mice were treated with the cream formulation once daily, five days per week. In the portion of the test summarized below, the cream contained LE in amounts of 0, 0.25% by weight and 0.5% by weight. (Higher concentrations were tested but results are not given here). Week 0 was baseline. After 4 weeks, skin thickness measurements were taken using a caliper. The cream also contained glycerin 99% USP, benzyl alcohol NF, purified water USP, carbomer 940 NF (Carbopol 980), glyceryl stearate/PEG 100 stearate, trolamine 99F, cetyl alcohol NF, stearyl alcohol NF, white petrolatum USP, light mineral oil NF and dimethicone (50 cst).

For data set [3] the following is noted: anti-inflammatory activity; cited from earlier work.
Setting [4] is: LE 0.1% + Δ^1-CA 0.1% suspension, 22.5° C.
The mark [5] stands for this setting: LE 0.1% suspension, no Δ^1-CA, 22.5° C.
Setting [6] is: LE 0.2% + Δ^1-CA 0.2% suspension, 22.5° C.
Setting [7] is: LE 0.2% suspension, no Δ^1-CA, 22.5° C.
The mark [8] stands for this setting: regimens of Table 2, listed as loteprednol etabonate.

As for `CCOC(=O)OC1(C(=O)O)CC[C@H]2[C@@H]3CCC4=CC(=O)C=C[C@]4(C)[C@H]3C(O)C[C@@]21C` (stereo partly shown) [AE], the “stability of degradation product AE in the suspension” value in data set [1] (aqueous LE suspensions, 22.5° C.) was “stable”.
With `CCCCC(=O)O[C@]1(C(=O)CO)[C@@H](C)C[C@H]2[C@@H]3CCC4=CC(=O)C=C[C@]4(C)[C@@]3(F)[C@@H](O)C[C@@]21C` [BMV, betamethasone 17-valerate], in the data set on patient with necrobiosis, the “effect on inflammation / necrobiosis” value is “successful in lessening inflammation” and the “skin atrophy (skin thinning)” value is listed as “thinned the skin”. For the same compound, in the data set on Sprague-Dawley rats (200 mg/day - 14 d), the “PERCENT DECREASE IN SKIN THICKNESS” value is 12.8* PERCENT and the “PERCENT DECREASE IN THYMUS WEIGHT” value is listed as 70.1** PERCENT. Moreover, in the data set with Sprague-Dawley rats (regimens of Table 2), the “effect on thymus weight (in words)” value was “significant decreases in thymus weight” and the “skin atrophy (in words)” value was “caused skin atrophy”. In the data set on Sprague-Dawley rats (regimens of Table 2, listed as Betamethasone valerate), the “effect on thymus weight (in words)” value is reported as “most significant decreases in thymus weight”.
In the case of `CCCC(=O)O[C@]1(C(=O)CO)CC[C@H]2[C@@H]3CCC4=CC(=O)CC[C@]4(C)[C@H]3[C@@H](O)C[C@@]21C` [HCB, hydrocortisone 17-butyrate], in the data set with Sprague-Dawley rats (200 mg/day - 14 d), the “PERCENT DECREASE IN SKIN THICKNESS” value is recorded as 17.9* PERCENT and the “PERCENT DECREASE IN THYMUS WEIGHT” value was 29.5* PERCENT. Also, in the data set on Sprague-Dawley rats (400 mg/day - 7 d), the “PERCENT DECREASE IN SKIN THICKNESS” value was 12.8* PERCENT and the “PERCENT DECREASE IN THYMUS WEIGHT” value is 36.0** PERCENT. In addition, in the data set with Sprague-Dawley rats (regimens of Table 2), the “effect on thymus weight (in words)” value is listed as “significant decreases in thymus weight” and the “skin atrophy (in words)” value is “most marked; also recorded: caused skin atrophy”.
Consider `CCOC(=O)O[C@]1(C(=O)OCCl)CC[C@H]2[C@@H]3CCC4=CC(=O)C=C[C@]4(C)[C@H]3[C@@H](O)C[C@@]21C` [LE, chloromethyl 17α-ethoxycarbonyloxy-11β-hydroxyandrosta-1,4-dien-3-one-17β-carboxylate], for which, in data set [2], the cataracts result is given as “did not elevate intraocular pressure or cause cataracts”. Also, in data set [2], the “elevation of intraocular pressure” value is given as “did not elevate intraocular pressure”. The “effect on inflammation / necrobiosis” value in the data set with patient with necrobiosis was “effective in treating the necrobiosis by lessening inflammation”. In addition, in the data set on patient with necrobiosis, the “skin atrophy (skin thinning)” value is “did not cause skin atrophy”. The “skin atrophy (in words)” value is “more skin atrophy was seen” with hairless mice (1.5% and 4.5% by weight of LE and/or study extended to week 8 and week 13); “minimal effects on skin atrophy and thymus weight” in the data set with Sprague-Dawley rats (regimens of Table 2); “did not cause a statistically significant decrease in skin thickness” in the data set with Sprague-Dawley rats (regimens of Table 2, listed as Loteprednol etabonate); “less skin atrophy” in the data set with Sprague-Dawley rats (setting [8]). Besides, the “effect on skin thickness (in words)” value in the data set with hairless mice (LE at 0.25% and 0.5%, application for four weeks) is recorded as “no or minimal deleterious effect on skin thickness”. Besides, the t95% in data set [1] (setting [4]) turned out to be 3.66 year; in data set [1] (setting [5]), 2.10 year; in data set [1] (setting [6]) it was 6.12 year; in data set [1] (setting [7]), 3.21 year. Moreover, the k is reported as 3.84 day^−1 × 10^−5 in data set [1] (setting [4]), 6.69 day^−1 × 10^−5 in data set [1] (setting [5]), 2.30 day^−1 × 10^−5 in data set [1] (setting [6]) and 4.38 day^−1 × 10^−5 in data set [1] (setting [7]). Also, the “stabilization of LE by increase in concentration” value in data set [1] (concentration from 0.1% to 0.2%, in either LE-only or LE+Δ^1-CA suspension) was “more than 1.5 times”. The “stabilization of LE by Δ^1-cortienic acid relative to LE in the absence of the enhancer (increase of half-life)” value in data set [1] (same concentration of Δ^1-CA added to LE suspension) was “between one and one-half and two times; also recorded: almost two times”. Besides, the “activity relative to hydrocortisone (HC)” value in data set [3] is on record as “approximately 20 times”. For the same compound, the “PERCENT DECREASE IN SKIN THICKNESS” value with Sprague-Dawley rats (200 mg/day - 14 d) was determined as 6.5%; in the data set on Sprague-Dawley rats (400 mg/day - 7 d), 10.3%. Besides, the “PERCENT DECREASE IN THYMUS WEIGHT” value with Sprague-Dawley rats (200 mg/day - 14 d) is 12.8%; in the data set on Sprague-Dawley rats (400 mg/day - 7 d), −2.5%. Besides, the “effect on thymus weight (in words)” value was “minimal effects on skin atrophy and thymus weight” in the data set on Sprague-Dawley rats (regimens of Table 2); “did not effect thymus weight significantly” in the data set with Sprague-Dawley rats (setting [8]).
